# From patent publication US7514432B2, “Compounds and methods of treating cell proliferative diseases, retinopathies and arthritis” (Exonhit Therapeutics SA, priority 2003, dated 2009)
# How the values were obtained:
# MDA-MB-231 [1] = experiment: Cell viability assay (MTT), MDA-MB-231; format: cell-based, human; conditions: 1% DMSO
# Procedure, shortened: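 Cells seeded 24 h before treatment with 0–200 μM compound (11 concentrations, 1% DMSO final) in 10% or 0.5% FBS medium; exposure 16 h, 3 or 6 days, fed every 3 days in 6-day runs. MTT 0.5 mg/ml read at 550 nm; IC50 from dose-response curves, mean±SEM.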
# MDA-MB-231 [2] = experiment: Boyden chamber migration assay, MDA-MB-231; format: cell-based, human; conditions: Homo sapiens, FBS as chemoattractant
# Protocol: FIG. 4: Migration assays. (A) Wound healing assay in REF cells. 7.6 10^4 cells were plated on coverslips 48 hours before the experiment. The cells were pre-treated for 30 min. with the compounds, and then a scrape was done using a pipette tip. The scraped coverslips in treatment medium were put under a thermostated microscope coupled to a video camera. Movies were analyzed as described in material and methods, and velocity and total distance covered by the cells were evaluated. Bar graphs represent the mean±SEM of 2 to 4 experiments. (B) Boyden chamber migration assay in HMEC1, NIH3T3 and MDA-MB-231 cells. 5 10^4 to 7.5 10^4 Cells, resuspended in culture medium with or without FBS and with different compound concentrations, were seeded in the upper Boyden blind well on top of 8 μm pore-sized filters. The ability of the cells to migrate through the filter was assayed in the absence or presence of FBS in the lower Boyden chamber. After 16 hours incubation, the medium was removed and replaced with calcein-AM containing medium. After labeling, cells were washed with HBSS and fluorescence was read in a fluorescence plate reader. Fluorescence values were normalized against the fluorescence obtained for the 1% DMSO control. The data plotted are the means±SEM of 2 to 4 independent experiments.
# An essential characteristic of malignant cells is their ability to migrate, invade host tissues and to produce metastases. In order to evaluate the capacity of one compound to affect the ability of tumoral cells to migrate, migration assays were performed using highly invasive tumoral cells MDA-MB-231, endothelial cells HMEC1 or fibroblastic cells NIH3T3. This assay was performed using Falcon HTS Fluoroblock inserts. Culture medium containing Fetal Bovine Serum (FBS; which is used as a chemoattractant) was added to the plate wells and 2 10^4 to 7.5 10^4 cells resuspended in medium without FBS and with 0.1% BSA were added to each insert well. The compound of interest was added to the medium in both the upper and the lower chambers. Plates were incubated for 16 hours at 37° C. Following incubation, the medium was removed from the upper chamber and the entire insert plate was transferred to a second 24-well plate containing 4 μg/ml Calcein-AM™ in medium containing 0.1% BSA. The plates were incubated for one hour at 37° C., rinsed with Hanks Buffered Saline (HBSS). Fluorescence data were collected using Fluoroskan Ascent FL fluorescence plate reader at an excitation wavelength (Ex) of 485 nm and emission wavelength (Em) of 517 nm. Only those labelled cells that passed through the Matrigel layer and the membrane were detected. Data were analyzed using the GraphPad Prism software and IM50s (dose at which 50% inhibition of cell migration is observed) were calculated.
# [3] = Homo sapiens, MDA-MB-231, 16 h, 10% FBS, 16-hours treatment, read-out: IC50 μM, MDA-MB-231
# [4] = Homo sapiens, MDA-MB-231, 72 h, 10% FBS, 3-day treatment, read-out: IC50 μM, MDA-MB-231
# [5] = Homo sapiens, MDA-MB-231, 144 h, 0.5% FBS, 6-day treatment, read-out: IC50 (μM), MDA-MB-231
structure (smiles),measurement,setting,value
"Cl.Cl.O=c1cc(CN2CCOCC2)occ1OCCCCCSc1ccnc2cc(C(F)(F)F)ccc12 [EHT 1864, 5-(5-(7-(Trifluoromethyl)quinolin-4-ylthio)pentyloxy)-2-(morpholinomethyl)-4H-pyran-4-one dihydrochloride]",IC50,"MDA-MB-231 [1]; 10% FBS, 6-day treatment, dihydrochloride, read-out: IC50 μM, MDA-MB-231",9.3 µM
same,IC50,MDA-MB-231 [1]; [3],126 µM
same,IC50,MDA-MB-231 [1]; [4],9.9 µM
same,IC50,MDA-MB-231 [1]; [5],6.3 µM
same,IC50,"MDA-MB-231 [1]; Homo sapiens, MDA-MB-231, 144 h, 10% FBS, 6-day treatment, read-out: IC50 μM, MDA-MB-231",< 9 µM
same,IC50,"MDA-MB-231 [2]; MDA-MB-231, 16 hours",5.1 ± 1.9 µM
"Cl.Cl.Cl.O=c1cc(CN2CCNCC2)occ1OCCCCCSc1ccnc2cc(C(F)(F)F)ccc12 [EHT 8560, 5-(5-(7-(Trifluoromethyl)quinolin-4-ylthio)pentyloxy)-2-((piperazin-1-yl)methyl)-4H-pyran-4-one trihydrochloride]",IC50,MDA-MB-231 [1]; [4],9 µM
same,IC50,MDA-MB-231 [1]; [5],4 µM
same,IC50,"MDA-MB-231 [2]; MDA-MB-231, 16 h",4.5 ± 2.4 µM
"CN1CCN(Cc2cc(=O)c(OCCCCCSc3ccnc4cc(C(F)(F)F)ccc34)co2)CC1.Cl.Cl.Cl [EHT 9241, 5-(5-(7-(Trifluoromethyl)quinolin-4-ylthio)pentyloxy)-2-((4-methylpiperazin-1-yl)methyl)-4H-pyran-4-one trihydrochloride]",IC50,"MDA-MB-231 [1]; 10% FBS, 6-day treatment, trihydrochloride, read-out: IC50 μM, MDA-MB-231",5.3 µM
same,IC50,MDA-MB-231 [1]; [3],48.4 µM
same,IC50,MDA-MB-231 [1]; [4],11.1 µM
same,IC50,MDA-MB-231 [1]; [5],3.8 µM
same,IC50,"MDA-MB-231 [2]; MDA-MB-231, 16 h",2.7 ± 1 µM
